Where a SMILES comes first, the peptide text is derived from it. Bridges are numbered along the chain shown (N, C = ends). [ ]: non-standard residue; d: D form. Pen = CC(C)(S)[C@H](N)C(=O)O; hCys = N[C@@H](CCS)C(=O)O
Key:
Experiment in all cases: cAMP accumulation via β-galactosidase (β-Gal) reporter system (cAMP Hunter GPCR assay)
Format in all cases: cell-based
MC-1R = MC-1R (Homo sapiens, UniProt Q01726); conditions: ratio of EC-50 values, MC-1R versus MC-4R
From the text: (§1) cAMP Accumulation Measurement via a β-Galactosidase (β-Gal) Reporter System
(§2) A chemiluminescence readout system that uses an enzyme fragment complementation (EFC) system with β-galactosidase (β-Gal) as the functional reporter system was used. This assay system for various melanocortin receptor systems is commercially available (cAMP Hunter GPCR assay system, Discoverx Corp, Fremont, Calif.). This assay utilizes the β-Gal enzyme that is split into two complementary portions; EA for Enzyme Acceptor and ED for Enzyme Donor. In the assay, the ED portion fused to cAMP is made to compete with cAMP generated by cells for binding to a cAMP-specific antibody. The EA is then added to form active β-Gal with any unbound ED-cAMP. […] Briefly, 10000 cells per well are plated overnight and each well (cells incubated with 10 μl assay buffer) is then incubated with 4X serial concentration of the test compound in the cell assay buffer (5 μL) and cAMP antibody reagent (5 μL) for 30 min at 37° C. The cell lysis buffer (20 μL) containing ED-cAMP coupled enzyme fragment and the reporter substrate (Emerald II-Galacton Star, 5:1) is then added and incubated for 60 min at room temperature. Next, 20 μL of EA β-Gal fragment reagent is added. After further incubation for 120 min at room temperature, the chemiluminescence is measured by a plate reader (Envision).

MC-3R = MC-3R (Homo sapiens, UniProt P41968); conditions: for Selectivity Ratios MC4R/MC3R: ratio of EC-50 values, MC-3R versus MC-4R; for EC50: cAMP agonist readout, MC-3R, read-out: EC-50 (nM) MC-3R
Chain of MC-3R (P41968 whole entry): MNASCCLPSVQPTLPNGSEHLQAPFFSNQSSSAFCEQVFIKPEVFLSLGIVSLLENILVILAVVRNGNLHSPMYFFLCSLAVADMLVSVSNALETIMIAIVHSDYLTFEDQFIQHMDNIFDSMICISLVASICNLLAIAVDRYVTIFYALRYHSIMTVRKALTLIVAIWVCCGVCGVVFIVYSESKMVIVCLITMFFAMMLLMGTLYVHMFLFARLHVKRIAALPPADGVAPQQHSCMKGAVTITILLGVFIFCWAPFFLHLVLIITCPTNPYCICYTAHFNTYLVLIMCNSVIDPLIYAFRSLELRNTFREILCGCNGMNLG
From the text: as §1, §2

MC-5R = MC-5R (Homo sapiens, UniProt P33032); conditions: for Selectivity Ratios MC4R/MC5R: ratio of EC-50 values, MC-5R versus MC-4R
Chain of MC-5R (P33032 whole entry): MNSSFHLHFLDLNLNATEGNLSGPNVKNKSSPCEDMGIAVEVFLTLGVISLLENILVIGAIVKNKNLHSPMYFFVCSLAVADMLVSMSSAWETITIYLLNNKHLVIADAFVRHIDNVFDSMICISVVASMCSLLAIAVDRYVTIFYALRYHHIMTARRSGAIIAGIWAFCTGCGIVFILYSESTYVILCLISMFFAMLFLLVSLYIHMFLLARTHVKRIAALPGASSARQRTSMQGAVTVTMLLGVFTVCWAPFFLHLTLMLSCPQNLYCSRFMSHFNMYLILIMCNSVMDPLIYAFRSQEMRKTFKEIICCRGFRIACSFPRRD
From the text: as §1
A chemiluminescence readout system that uses an enzyme fragment complementation (EFC) system with β-galactosidase (β-Gal) as the functional reporter system was used. This assay system for various melanocortin receptor systems is commercially available (cAMP Hunter GPCR assay system, Discoverx Corp, Fremont, Calif.). This assay utilizes the β-Gal enzyme that is split into two complementary portions; EA for Enzyme Acceptor and ED for Enzyme Donor. In the assay, the ED portion fused to cAMP is made to compete with cAMP generated by cells for binding to a cAMP-specific antibody. The EA is then added to form active β-Gal with any unbound ED-cAMP. This active enzyme then converts a chemiluminescent substrate to generate an output signal that is recorded on a standard microplate reader. Briefly, 10000 cells per well are plated overnight and each well (cells incubated with 10 μl assay buffer) is then incubated with 4X serial concentration of the test compound in the cell assay buffer (5 μL) and cAMP antibody reagent (5 μL) for 30 min at 37° C. The cell lysis buffer (20 μL) containing ED-cAMP coupled enzyme fragment and the reporter substrate (Emerald II-Galacton Star, 5:1) is then added and incubated for 60 min at room temperature. Next, 20 μL of EA β-Gal fragment reagent is added. After further incubation for 120 min at room temperature, the chemiluminescence is measured by a plate reader (Envision).

Chain of MC-1R (Q01726 whole entry): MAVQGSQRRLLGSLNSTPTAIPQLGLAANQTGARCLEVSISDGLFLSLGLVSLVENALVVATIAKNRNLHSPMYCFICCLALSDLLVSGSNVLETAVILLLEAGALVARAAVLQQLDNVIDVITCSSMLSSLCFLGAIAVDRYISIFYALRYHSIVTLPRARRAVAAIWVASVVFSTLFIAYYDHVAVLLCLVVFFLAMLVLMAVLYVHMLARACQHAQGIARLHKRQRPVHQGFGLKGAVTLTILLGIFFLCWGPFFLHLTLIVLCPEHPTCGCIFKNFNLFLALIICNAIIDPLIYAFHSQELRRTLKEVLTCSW

Structure (SMILES): CC(=O)N[C@@H](CCCNC(=N)N)C(=O)N[C@H]1CCC(=O)NC[C@@H](C(N)=O)NC(=O)[C@H](Cc2c[nH]c3ccccc23)NC(=O)[C@H](CCCNC(=N)N)NC(=O)[C@@H](Cc2ccccc2)NC(=O)[C@H](CCC(N)=O)NC1=O [Compound 001576C, Ac-Arg-(Glu-Gln-D-Phe-Arg-Trp-Dpr)-NH2]
- Selectivity Ratios MC4R/MC1R (MC-1R): 35.57
- Selectivity Ratios MC4R/MC3R (MC-3R): 1.75
- Selectivity Ratios MC4R/MC5R (MC-5R): 101.41

Structure (SMILES): CC(=O)N[C@@H](CCCNC(=N)N)C(=O)N[C@H]1CCSSC(C)(C)[C@@H](C(N)=O)NC(=O)[C@H](Cc2c[nH]c3ccccc23)NC(=O)[C@H](CCCNC(=N)N)NC(=O)[C@@H](Cc2ccccc2)NC(=O)[C@H](CC(N)=O)NC1=O [Compound 001554C, Ac-Arg-(hCys-Asn-D-Phe-Arg-Trp-Pen)-NH2] (Ac-R[hCys]N[dF]RW[Pen]-NH2; disulfide 2-7)
- Selectivity Ratios MC4R/MC1R (MC-1R): 146.75
- EC50 (MC-3R): > 3000 nM
- Selectivity Ratios MC4R/MC3R (MC-3R): >1872.97
- Selectivity Ratios MC4R/MC5R (MC-5R): 459.17

Structure (SMILES): CC(=O)N[C@@H](CCCNC(=N)N)C(=O)N[C@H]1CCSSC(C)(C)[C@@H](C(N)=O)NC(=O)[C@H](Cc2c[nH]c3ccccc23)NC(=O)[C@H](CCCNC(=N)N)NC(=O)[C@@H](Cc2ccccc2)NC(=O)[C@H](CO)NC1=O [Compound 001556C, Ac-Arg-(hCys-Ser-D-Phe-Arg-Trp-Pen)-NH2] (Ac-R[hCys]S[dF]RW[Pen]-NH2; disulfide 2-7)
- Selectivity Ratios MC4R/MC1R (MC-1R): 123.06
- EC50 (MC-3R): > 3000 nM
- Selectivity Ratios MC4R/MC3R (MC-3R): >1615.55
- Selectivity Ratios MC4R/MC5R (MC-5R): 916.48

Structure (SMILES): CC(=O)N[C@@H](CCCNC(=N)N)C(=O)N[C@H]1CSSC[C@@H](C(N)=O)NC(=O)[C@H](Cc2c[nH]c3ccccc23)NC(=O)[C@H](CCCNC(=N)N)NC(=O)[C@@H](Cc2ccccc2)NC(=O)[C@H](Cc2c[nH]cn2)NC(=O)[C@@H](C)NC1=O [RM-493, reference compound]
- EC50 (MC-5R; cAMP agonist readout, MC-5R, read-out: EC-50 (nM) MC-5R): 1680 nM

Structure (SMILES): CC(=O)N[C@@H](CCCNC(=N)N)C(=O)N[C@H]1CCSSC(C)(C)[C@@H](C(N)=O)NC(=O)[C@H](Cc2c[nH]c3ccccc23)NC(=O)[C@H](CCCNC(=N)N)NC(=O)[C@@H](Cc2ccccc2)NC(=O)[C@H]([C@@H](C)O)NC1=O [Compound 001574C, Ac-Arg-(hCys-Thr-D-Phe-Arg-Trp-Pen)-NH2] (Ac-R[hCys]T[dF]RW[Pen]-NH2; disulfide 2-7)
- Selectivity Ratios MC4R/MC1R (MC-1R): 465.77
- EC50 (MC-3R): > 3000 nM
- Selectivity Ratios MC4R/MC3R (MC-3R): >2705.95
- Selectivity Ratios MC4R/MC5R (MC-5R): 1846.64

Structure (SMILES): CC(=O)N[C@@H](CCCNC(=N)N)C(=O)N[C@H]1CCSSC(C)(C)[C@@H](C(N)=O)NC(=O)[C@H](Cc2c[nH]c3ccccc23)NC(=O)[C@H](CCCNC(=N)N)NC(=O)[C@@H](Cc2ccccc2)NC(=O)[C@H](CCC(N)=O)NC1=O [Compound 001555C, Ac-Arg-(hCys-Gln-D-Phe-Arg-Trp-Pen)-NH2] (Ac-R[hCys]Q[dF]RW[Pen]-NH2; disulfide 2-7)
- Selectivity Ratios MC4R/MC1R (MC-1R): 244.35
- Selectivity Ratios MC4R/MC3R (MC-3R): 2.68
- Selectivity Ratios MC4R/MC5R (MC-5R): 639.81

Source: US20220226425A1, “METHOD OF TREATING MELANOCORTIN-4 RECEPTOR PATHWAY-ASSOCIATED DISORDERS” (RHYTHM PHARMACEUTICALS, INC., priority 2015, published 2022)
